The target in one assay is T1, recombinant His-tag Y220C p53 DBD protein (Homo sapiens, UniProt P04637, Y220C).
T1 construct: recombinant His-tag Y220C p53 DBD protein (amino acids #˜94-312)
Nature of the assay: In vitro DNA binding activity assay (TR-FRET): binding of His-tag Y220C p53 DBD to biotin-labeled consensus DNA. It is filed as biochemical. As to conditions: SC150 = concentration to increase DNA binding by […], His-tag Y220C p53 DBD, biotin-labeled consensus DNA.
With `C[C@H]1CN(C)CC[C@H]1Nc1cccc2c1cc(-c1noc(CNC(=O)c3cnn(C(C)(C)C)c3)n1)n2CC(F)(F)F` [Compound 510B, 1-tert-butyl-N-{[3-(4-{[(3S,4R)-1,3-dimethylpiperidin-4-yl]amino}-1-(2,2,2-trifluoroethyl)-1H-indol-2-yl)-1,2,4-oxadiazol-5-yl]methyl}-1H-pyrazole-4-carboxamide], the “Y220C SC150 (μM)” value is reported as “* (* = 0 μM ≤ SC150 < 0.1 μM)”.
`CN1CC[C@@H](Nc2cccc3c2cc(-c2noc(CNC(=O)c4ccsc4)n2)n3CC(F)(F)F)[C@@H](F)C1` (racemic) [Compound 176B, (+/−)-N-{[3-(4-{[(3R,4S)-3-fluoro-1-methylpiperidin-4-yl]amino}-1-(2,2,2-trifluoroethyl)-1H-indol-2-yl)-1,2,4-oxadiazol-5-yl]methyl}thiophene-3-carboxamide]: the “Y220C SC150 (μM)” value was “* (* = 0 μM ≤ SC150 < 0.1 μM)”.
On the same count and under the same terms, as for `CN1CC[C@@H](Nc2cccc3c2cc(-c2noc(CNC(=O)c4cncn4-c4ccccc4)n2)n3CC(F)(F)F)[C@@H](F)C1` [Compound 309B, N-{[3-(4-{[(3S,4R)-3-fluoro-1-methylpiperidin-4-yl]amino)-1-(2,2,2-trifluoroethyl)-1H-indol-2-yl)-1,2,4-oxadiazol-5-yl]methyl}-1-phenyl-1H-imidazole-5-carboxamide], the entry is “* (* = 0 μM ≤ SC150 < 0.1 μM)”.
On the same count and under the same terms, as for `CC1(n2ccc(C(=O)NCc3nc(-c4cc5c(N[C@@H]6CCOC[C@@H]6F)cccc5n4CC(F)(F)F)no3)c2)CCOCC1` (stereo in doubt) [Compound 491B], the entry is “* (* = 0 μM ≤ SC150 < 0.1 μM)”; as for `CN1CC[C@@H](Nc2cccc3c2cc(-c2ccc(CNC(=O)c4cnn(C(C)(C)C)c4)cn2)n3CC(F)(F)F)[C@@H](F)C1` [Compound 285B, 1-tert-butyl-N-{[6-(4-{[(3S,4R)-3-fluoro-1-methylpiperidin-4-yl]amino}-1-(2,2,2-trifluoroethyl)-1H-indol-2-yl)pyridin-3-yl]methyl}-1H-pyrazole-4-carboxamide], “** (** = 0.1 μM ≤ SC150 < 0.5 μM)”.
Same read-out and setting: as for `COC(C)(C)c1cc(C(=O)NCc2nc(-c3cc4c(N[C@@H]5CCNC[C@@H]5F)cccc4n3CC(F)(F)F)no2)cs1` [Compound 489B, N-{[3-(4-{[(3S,4R)-3-fluoropiperidin-4-yl]amino}-1-(2,2,2-trifluoroethyl)-1H-indol-2-yl)-1,2,4-oxadiazol-5-yl]methyl}-5-(2-methoxypropan-2-yl)thiophene-3-carboxamide], the entry is “* (* = 0 μM ≤ SC150 < 0.1 μM)”; as for `CCC(C)(C)n1ccc(C(=O)NCc2nc(-c3cc4c(N[C@@H]5CCN(C)C[C@@H]5F)cccc4n3CC(F)(F)F)no2)c1` [Compound 427B, N-{[3-(4-{[(3S,4R)-3-fluoro-1-methylpiperidin-4-yl]amino}-1-(2,2,2-trifluoroethyl)-1H-indol-2-yl)-1,2,4-oxadiazol-5-yl]methyl}-1-(2-methylbutan-2-yl)-1H-pyrrole-3-carboxamide], “* (* = 0 μM ≤ SC150 < 0.1 μM)”; as for `CN1CC[C@@H](Nc2cccc3c2cc(-c2noc(CNC(=O)[C@H]4C[C@@H](C)C4)n2)n3CC(F)(F)F)[C@@H](F)C1` [Compound 223B, (1r,3s)-N-{[3-(4-{[(3S,4R)-3-fluoro-1-methylpiperidin-4-yl]amino}-1-(2,2,2-trifluoroethyl)-1H-indol-2-yl)-1,2,4-oxadiazol-5-yl]methyl}-3-methylcyclobutane-1-carboxamide], “* (* = 0 μM ≤ SC150 < 0.1 μM)”.
For `CC(C)(C)n1cc(C(=O)NCc2nc(-c3cc4c(N[C@H]5CCOC[C@H]5F)cccc4n3CC(F)(F)F)no2)cn1` [Compound 498B, 1-tert-butyl-N-{[3-(4-{[(3S,4S)-3-fluorooxan-4-yl]amino}-1-(2,2,2-trifluoroethyl)-1H-indol-2-yl)-1,2,4-oxadiazol-5-yl]methyl}-1H-pyrazole-4-carboxamide], the “Y220C SC150 (μM)” value was “* (* = 0 μM ≤ SC150 < 0.1 μM)”.
The same measure, in the same setting: as for `CN1CC[C@@H](Nc2cccc3c2cc(-c2nnc(CNC(=O)C4CC4)s2)n3CC(F)(F)F)[C@@H](F)C1` [Compound 47B, N-{[5-(4-{[(3S,4R)-3-fluoro-1-methylpiperidin-4-yl]amino}-1-(2,2,2-trifluoroethyl)-1H-indol-2-yl)-1,3,4-thiadiazol-2-yl]methyl}cyclopropanecarboxamide], the entry is “* (* = 0 μM ≤ SC150 < 0.1 μM)”; as for `CN(C)C[C@@H]1C[C@H]1C(=O)NCc1nc(-c2cc3c(N[C@@H]4CCN(C)C[C@@H]4F)cccc3n2CC(F)(F)F)no1` [Compound 264B, (1R,2R)-2-[(dimethylamino)methyl]-N-{[3-(4-{[(3S,4R)-3-fluoro-1-methylpiperidin-4-yl]amino}-1-(2,2,2-trifluoroethyl)-1H-indol-2-yl)-1,2,4-oxadiazol-5-yl]methyl}cyclopropane-1-carboxamide], “* (* = 0 μM ≤ SC150 < 0.1 μM)”; as for `CCCNC[C@@H]1C[C@H]1C(=O)NCc1nc(-c2cc3c(N[C@@H]4CCN(C)C[C@@H]4F)cccc3n2CC(F)(F)F)no1` [Compound 247B, (1R,2R)-N-{[3-(4-{[(3S,4R)-3-fluoro-1-methylpiperidin-4-yl]amino}-1-(2,2,2-trifluoroethyl)-1H-indol-2-yl)-1,2,4-oxadiazol-5-yl]methyl}-2-[(propylamino)methyl]cyclopro-pane-1-carboxamide], “* (* = 0 μM ≤ SC150 < 0.1 μM)”.
On the same count and under the same terms, as for `CN1CCC(Nc2cccc3c2cc(-c2cc(C(N)c4ccccc4)[nH]n2)n3CC(F)(F)F)CC1` (centres unmarked) [Compound 20B, 2-{5-[amino(phenyl)methyl]-1H-pyrazol-3-yl}-N-(1-methylpiperidin-4-yl)-1-(2,2,2-trifluoroethyl)-1H-indol-4-amine], the entry is “**** (**** = 1 μM ≤ SC150 < 10 μM)”.
On the same count and under the same terms, in the case of `COCCN1CC[C@@H](Nc2cccc3c2cc(-c2noc(CNC(=O)c4cnn(C(C)(C)C)c4)n2)n3CC(F)(F)F)[C@@H](F)C1` [Compound 338B, 1-tert-butyl-N-{[3-(4-{[(3S,4R)-3-fluoro-1-(2-methoxyethyl)piperidin-4-yl]amino}-1-(2,2,2-trifluoroethyl)-1H-indol-2-yl)-1,2,4-oxadiazol-5-yl]methyl}-1H-pyrazole-4-carboxamide] it was “* (* = 0 μM ≤ SC150 < 0.1 μM)”.
`COc1cc(S(C)(=O)=O)ccc1NCc1nnc(-c2cc3c(N[C@H]4CCN(C)C[C@@H]4F)cccc3n2CC(F)(F)F)s1` (racemic) [Compound 28B, (+/−)-N-[(3R,4R)-3-fluoro-1-methylpiperidin-4-yl]-2-(5-{[(4-methanesulfonyl-2-methoxyphenyl)amino]methyl}-1,3,4-thiadiazol-2-yl)-1-(2,2,2-trifluoroethyl)-1H-indol-4-amine]: the “Y220C SC150 (μM)” value is reported as “* (* = 0 μM ≤ SC150 < 0.1 μM)”.

Staying with this assay, now noted: concentration to increase DNA binding by […], incubated at either 27° C. or 29° C. for 60 min.
As for `CNC(=O)c1cccc(-c2cc3c(NC4CCS(=O)(=O)CC4)cccc3n2CC(F)(F)F)c1` [Compound 22A, 3-{4-[(1,1-dioxo-1λ^6-thian-4-yl)amino]-1-(2,2,2-trifluoroethyl)-1H-indol-2-yl}-N-methylbenzamide], the “SC150 (μM)” value is “++ (++ = 2 μM ≤ SC150 < 5 μM)”.
The same measure, in the same setting: in the case of `Cc1ccc(NCc2ccc(-c3cc4c(NC5CCN(C6CCOCC6)CC5)cccc4n3CC(F)(F)F)cc2)cn1` [Compound 31A, 2-(4-{[(6-methylpyridin-3-yl)amino]methyl}phenyl)-N-[1-(oxan-4-yl)piperidin-4-yl]-1-(2,2,2-trifluoroethyl)-1H-indol-4-amine] it was “+ (+ = 0 μM ≤ SC150 < 2 μM)”.

The values above are taken from patent US11807644B2 (PMV Pharmaceuticals, Inc., priority 2020, dated 2023).
